Values after ≈ are worked out from the molar mass of the structure shown. Where a SMILES comes first, the peptide text is derived from it. The star is where a group is joined. Myristoyl = CCCCCCCCCCCCCC(=O)*
Columns and labels:
[1] = tested on: C. neoformans wild type strain H99; assay: microbe, parasite or virus in culture; format: cell-based, Cryptococcus neoformans; conditions: wild-type H99, alone, read at 24 and 48 hours, 37° C.
Method: The assays followed standard CLSI protocol for broth microdilution assays using yeasts.(32) Microbes were passaged in YPD media at 37° C. with mixing for 2 days before harvesting with an inoculation loop to prepare monocultures on Sabouraud Dextrose Agar (SDA) plates. Monocultures on SDA plates were incubated for 2 days at 37° C. before harvesting cells for microdilution assays. RPMI media (100 μL) was charged to each of the 96 wells in a 96 well plate, with an additional 100 μL in the first column. […] The 100 μL was serially diluted by a factor of 2 from the first column to the 11th column. Microbe inoculant was then prepared. An inoculation loop was used to transfer 1-3 colonies of cells to 1 mL phosphate buffer solution (PBS). The PBS and microbe solution was made uniform by vortex mixing. Cell concentration was computed by comparing the absorbance at 530 nm to 1× McFarland standard solution and multiplying the resulting ratio by 10^7 cell/mL conversion factor. Plate inoculant was prepared by diluting the PBS microbe solution to 5000 cell/mL, in RPMI media. A 100 μL aliquot of cells was transferred to each of the wells on the plate other than column 11 for the no growth control. The operating volume was 200 μL, with 500 CFU per well for a final concentration of 2.5*10^3 cells/mL.

[2] = tested on: C. neoformans cdc50Δ mutant strain; format: cell-based, Cryptococcus neoformans; conditions: alone
Method: The assays followed standard CLSI protocol for broth microdilution assays using yeasts.(32) Microbes were passaged in YPD media at 37° C. with mixing for 2 days before harvesting with an inoculation loop to prepare monocultures on Sabouraud Dextrose Agar (SDA) plates. Monocultures on SDA plates were incubated for 2 days at 37° C. before harvesting cells for microdilution assays. RPMI media (100 μL) was charged to each of the 96 wells in a 96 well plate, with an additional 100 μL in the first column. Peptide-DMSO solution (4 μL) at 12.8 mg/mL was charged to each of the wells in the first column. The 100 μL was serially diluted by a factor of 2 from the first column to the 11th column. Microbe inoculant was then prepared. An inoculation loop was used to transfer 1-3 colonies of cells to 1 mL phosphate buffer solution (PBS). The PBS and microbe solution was made uniform by vortex mixing. Cell concentration was computed by comparing the absorbance at 530 nm to 1× McFarland standard solution and multiplying the resulting ratio by 10^7 cell/mL conversion factor. Plate inoculant was prepared by diluting the PBS microbe solution to 5000 cell/mL, in RPMI media. A 100 μL aliquot of cells was transferred to each of the wells on the plate other than column 11 for the no growth control. The operating volume was 200 μL, with 500 CFU per well for a final concentration of 2.5*10^3 cells/mL.

[3] = tested on: C. neoformans wild type strain H99; conditions: earlier mutation study; cited from earlier work
[4] = tested on: C. neoformans cdc50Δ mutant strain; conditions: earlier mutation study / literature; cited from earlier work
[5] = tested on: C. neoformans cdc50Δ mutant strain; format: cell-based, Cryptococcus neoformans; conditions: concentration of the peptide in combination with caspofungin; ΔCDC50
Method: The Fractional Inhibitory Concentration Index were calculated as follows: […]

C. neoformans cells = assay: AF350-Annexin V / propidium iodine flow cytometry assay (exofacial phosphatidylserine); format: cell-based, Cryptococcus neoformans; conditions: 0.128 mg/mL peptide, 20 minutes at 25° C.; control 0.2±0.1%
Method: Stock microbes were defrosted from the −80° C. freezer and were passed twice for 48 hours each in YPD media. The YPD media was removed by spinning down and the supernatant was decanted. Pelletized cells were resuspended in 1 mL PBS media and washed for 5 minutes with incubation at 25° C. and 250 RPM. Washed cells were spun down again and suspended in 1 mL of PBS solution. cells were diluted 20-fold into 1 mL fungal working solution in an eppendorf. Cell concentration was quantified via comparison to 1× McFarlain's standard on a plate reader using the absorbance value at 530 nm. An aliquot of 1*10^6 cells in 100 μL was created (1*10^7 cell/mL). […] The cells were incubated for 20 minutes at 25° C. and 250 RPM. Baseline and experimental samples were prepared in triplicate. Cells were stained using an operating concentration of 0.001 mg/mL Propidium Iodine (PI) and a 40-fold dilution of AlexaFluor 350 labelled annexin V as per manufactures instructions. After staining the cells, samples were spun down and supernatant decanted. Cells were then fixed in 4% formaldehyde for 5 minutes. Fixed cells were spun down and supernatant decanted and resuspended in 400 μL 1% formaldehyde for flowcytometry. Samples were collected at a slow flow rate on a MACS Quant 10 device (Miltenyi Biotech, Auburn, CA) with 20,000 events collected per injection.
It was sought to determine whether the activities of the peptides were related to the lipid-flipping activity of the P4-ATPase. […] The intensity of the AF350-annexin V signal corresponds to concentration of PS on the exofacial side of the membrane. The propidium iodine signal corresponds to cell viability.
Single cells were first selected and gated based on morphology to ensure homogeneity among the cell population (4A, 4B). Cells with low propidium iodine intensity (PI-A<9 RU) and high AF350-annexin V intensity (Annexin V-A>9 RU) (4C, 4D) were examined. Under these gating parameters there should be, respectively, low non-specific cell death and high exofacial PS.

C. neoformans H99 = assay: SDS and plate spotting assay; format: cell-based, Cryptococcus neoformans; conditions: H99 pre-treated with peptide at 128 for one hour; versus untreated or DMSO controls
Method: To test cell integrity, C. neoformans strains from 3 ml YPD overnight cultures were washed, resuspended, and serially diluted (1:10) in dH2O and spotted (5 μl) on YPD agar plates or YPD agar plates containing 0.03% SDS and incubated for 2 days at 30° C. and 37° C.
Of each strain, yeast cells were inoculated into liquid YPD with 128 μg/ml or 64 μg/ml peptide and co-incubated for 1 h at 30° C. And then, ten-fold serial dilutions were prepared, and 5 μl of each was spotted on YPD and YPD agar plates containing 0.03% SDS. The results were photographed after a 48 h incubation. Their growth was determined by serial dilutions and the fungal colonies were assessed by CFU numbers.
Briefly, cultures of C. neoformans were grown in YPD and then spotted on YPD plates containing 0.03% SDS.

[6] = tested on: C. neoformans wild type strain H99
Method: Microbes were prepared in the same manner as the MIC assay. […] 100 μL of RPMI media was added to the first 8 wells in the first row. […] The 100 μL of media with drug was serially diluted from the first row to the final row. […] Column 11 was the no growth control, and 12 was the no drug control. The plate was inoculated with microbes in the same manner as the MIC assay. Again, 200 uL was the operating volume, 500 CFU per well, 2.5*10^3 cell/mL. Plates were incubated for 48 hours at 37° C. and read thereafter. The Fractional Inhibitory Concentration Index were calculated as follows:
Where the MICA and MICB are the MIC values of drugs A and B alone and FICA and FICB are the Fractional Inhibitory concentrations of drugs A and B in the presence of each other, respectively.

[7] = tested on: human red blood cells (RBCs); conditions: 1 hour 37° C.; relative to Triton X-100 control
Method: Hemolysis assays were preformed using human red blood cells (RBCs), which were provided by Interstate Blood Bank (Philadelphia, PA) and stored immediately at 4° C. upon arrival. […] Free heme was extracted from stored RBCs washing in PBS with gentle centrifugation at 1000 RPM for 5 minutes. Washed cells resuspended to 4 mL in PBS and counted using a hemocytometer. […] Red blood cells were adjusted to 5*10^8 cells/mL and 50 uL was added to each of the wells. Operating conditions were 100 μL and 2.5*10^8 cell/mL. The positive control used as 2 μL of 1% Triton X-100. The plate was incubated at 37° C. for 1 hour. The resulting plate was spun down at 1000 RPM for 5 minutes. 20 μL supernatant was transferred to 80 μL PBS in a fresh 96 well plate for analysis (operating volume 100 μL.) A Spectra Max 340 plate reader (Molecular Devices, Sunnyvale, CA) was used to measure the absorbance of the analysis plate at 410 nm. The scans were run in triplicate. Averages and standard deviations between scans and replicates were computed. The negative control was subtracted from all the data points. The resulting corrected data was normalized by the corrected positive control.

CC[C@H](C)C[C@H](C)CCCCCCCCC(=O)N[C@H]1C[C@@H](O)[C@@H](NCCN)NC(=O)[C@@H]2[C@@H](O)CCN2C(=O)[C@H]([C@H](O)CCN)NC(=O)[C@H]([C@H](O)[C@@H](O)c2ccc(O)cc2)NC(=O)[C@@H]2C[C@@H](O)CN2C(=O)[C@H]([C@@H](C)O)NC1=O [Caspofungin, reference compound]
MIC ([1]; Cryptococcus neoformans, read-out: MIC ug/mL H99): 16 µg/mL (≈ 14.6 µM)
MIC ug/mL ΔCDC50 [2]: 4 µg/mL (≈ 3.66 µM)
MIC of caspofungin in wild-type strain H99 [3]: 16 µg/mL
MIC of caspofungin in cdc50Δ [4]: 4 µg/mL

CCCCCCCCCCCCCC(=O)N[C@@H](Cc1c[nH]c2ccccc12)C(=O)NCC(=O)NCC(=O)N[C@H](C(=O)N[C@@H](CCCCN)C(=O)N[C@@H](CCCCN)C(=O)N[C@@H](CC(N)=O)C(=O)N[C@@H](Cc1ccc(O)cc1)C(=O)N[C@@H](C)C(=O)O)[C@@H](C)CC [AW9-Ma] (Myristoyl-WGGIKKNYA-OH)
MIC ug/mL H99 [1]: 64 µg/mL (≈ 51.3 µM)
MIC ug/mL ΔCDC50 [2]: 2 µg/mL (≈ 1.6 µM)
FIC ug/mL ΔCDC50 Peptide [5]: 0.125 µg/mL
percentage of cells with low propidium iodine intensity (PI-A<9 RU) and high AF350-annexin V intensity (Annexin V-A>9 RU) (C. neoformans cells): 67.6%±2.3
growth (colony forming units) on agar medium with 0.03% SDS (C. neoformans H99): significantly reduced growth
MIC of caspofungin in the presence of the AW9-Ma peptide ([6]; C. neoformans wild type): 4 µg/mL
FIC ug/mL H99 Peptide ([6]; concentration of the peptide in combination with caspofungin, H99): 16 µg/mL
hemolysis of human RBC [7]: low amounts of hemolysis
